Where two headings read alike, the source gives them in different places.
How the values were obtained:
[1] = system: Eμ-Myc lymphoma cells stably expressing human Bcl-2; assay: Apoptosis induction in Eμ-Myc lymphoma cells; conditions: overexpression of Bcl-2, 24 h
From the text: The retroviral plasmids to express human Bcl-2 family members in murine Eμ-Myc lymphoma cells are MSCV-hMCL-1-GFP, MSCV-hBCL-2-GFP, MSCV-hBCL-XL-GFP, MSCV-hBFL-1/A1-GFP, and MSCV-hBCL-w-GFP. To produce viruses, constructs of interest were co-transfected into HEK293T cells with the plasmid encoding the packaging viruses (p-CL-AMPHO provided by Phillip Darcy from Peter MacCallum Cancer Center, Melbourne, Australia) using standard calcium phosphate transient transfection technique. The retroviruses were harvested, filtered and used to infect target cells following standard procedures.
Samples were then centrifuged, washed twice with PBS and analyzed by flow cytometry in a BD LSRFortessa. FACSDiva software was used for data collection and FlowJo software for data analysis.

HEL92.1.7 = assay: Cell viability assay; format: cell-based; conditions: Homo sapiens, HEL 92.1.7, 24 h; HEL92.1.7 (AML); read-out: AZD5991 24h GI50
Method: (§1) Cells were plated at 3000 cells/well in 384-well white plates in corresponding cell growth media. […] Caspase-3/7 activation was subsequently determined using a Caspase-Glo 3/7 Reagent (Promega) and viability was assayed using the CellTiter-Glo Reagent (Promega) as described in manufacturer’s instructions. Dose–response curves for caspase-3/7 activation and viability were plotted and analyzed (including EC50 and GI50 determination) using GraphPad Prism.

Nomo1 [2] = assay: Caspase-3/7 activation assay; format: cell-based; conditions: Homo sapiens, NOMO-1, 6 h
Method: as §1

HMCB = assay: Cell viability assay; format: cell-based; conditions: Homo sapiens, 24 h; HMCB (Skin); read-out: AZD5991 24h GI50
Method: as §1

OCIAML5 = assay: Caspase-3/7 activation assay; format: cell-based; conditions: Homo sapiens, OCI-AML-5, 6 h
Method: as §1

JVM2 = assay: Cell viability assay; format: cell-based; conditions: Homo sapiens, JVM-2, 24 h; JVM2 (NHL); read-out: AZD5991 24h GI50
Method: as §1

Karpas422 = assay: Cell viability assay; format: cell-based; conditions: Homo sapiens, KARPAS-422, 24 h; Karpas422 (NHL); read-out: AZD5991 24h GI50
Method: as §1

H2122 = assay: Cell viability assay; format: cell-based; conditions: Homo sapiens, NCI-H2122, 24 h; H2122 (Lung); read-out: AZD5991 24h GI50
Method: as §1

OCIM1 = assay: Caspase-3/7 activation assay; format: cell-based; conditions: OCI-M1, 6 h
Method: as §1

MCF7 = assay: Cell viability assay; format: cell-based; conditions: Homo sapiens, 24 h; MCF7 (Breast); read-out: AZD5991 24h GI50
Method: as §1

MV411 = assay: Caspase-3/7 activation assay; format: cell-based; conditions: Homo sapiens
Method: as §1

Nomo1 [3] = assay: Cell viability assay; format: cell-based; conditions: Homo sapiens, NOMO-1, 24 h; Nomo1 (AML); read-out: AZD5991 24h GI50
Method: as §1

KMS11 = assay: Cell viability assay; format: cell-based; conditions: Homo sapiens, KMS-11, 24 h; KMS11 (MM); read-out: AZD5991 24h GI50
Method: as §1

H1975 = assay: Cell viability assay; format: cell-based; conditions: Homo sapiens, NCI-H1975, 24 h; H1975 (Lung); read-out: AZD5991 24h GI50
Method: as §1

RI1 = assay: Cell viability assay; format: cell-based; conditions: Ri-1, 24 h; RI1 (NHL); read-out: AZD5991 24h GI50
Method: as §1

NCI-H929 = assay: Cell viability assay; format: cell-based; conditions: Homo sapiens, 24 h; NCI-H929 (MM); read-out: AZD5991 24h GI50
Method: as §1

LK2 = assay: Cell viability assay; format: cell-based; conditions: Homo sapiens, LK-2, 24 h; LK2 (Lung); read-out: AZD5991 24h GI50
Method: as §1

ME1 = assay: Caspase-3/7 activation assay; format: cell-based; conditions: ME-1, 6 h
Method: as §1

CMK = assay: Caspase-3/7 activation assay; format: cell-based; conditions: Homo sapiens, 6 h
Method: as §1

LUDLU1 = assay: Cell viability assay; format: cell-based; conditions: LUDLU-1, 24 h; LUDLU1 (Lung); read-out: AZD5991 24h GI50
Method: as §1

JEKO1 = assay: Cell viability assay; format: cell-based; conditions: Homo sapiens, JeKo-1, 24 h; JEKO1 (NHL); read-out: AZD5991 24h GI50
Method: as §1

L363 = assay: Cell viability assay; format: cell-based; conditions: Homo sapiens, L-363, 24 h; L363 (MM); read-out: AZD5991 24h GI50
Method: as §1

SKBR3 = assay: Cell viability assay; format: cell-based; conditions: Homo sapiens, SK-BR-3, 24 h; SKBR3 (Breast); read-out: AZD5991 24h GI50
Method: as §1

MALME3M = assay: Cell viability assay; format: cell-based; conditions: Homo sapiens, Malme-3M, 24 h; MALME3M (Skin); read-out: AZD5991 24h GI50
Method: as §1

MAVER1 = assay: Cell viability assay; format: cell-based; conditions: Homo sapiens, 24 h; MAVER1 (NHL); read-out: AZD5991 24h GI50
Method: as §1

H2110 = assay: Cell viability assay; format: cell-based; conditions: NCI-H2110, 24 h; H2110 (Lung); read-out: AZD5991 24h GI50
Method: as §1

[4] = system: NCI-H23 cells depleted of Bak; assay: Caspase-3/7 activation after Bak siRNA; format: cell-based; conditions: Bak siRNA 72 h, then 6 h treatment
Method: NCI-H23 cells were trypsinized and resuspended in growth medium. SiRNA targeting Bak (cat#S1881, ThermoFisher Scientific) or non-targeting siRNA (cat#4390847, ThermoFisher Scientific), and Lipofectamine RNAiMAX (ThermoFisher Scientific) were mixed in OPTIMEM and incubated at room temperature for 20 min. Next, cell suspension was added to each siRNA master mix, dispensed into each well of a 96-well plate and incubated for 72 h.

Bjab = assay: Cell viability assay; format: cell-based; conditions: Homo sapiens, 24 h; Bjab (NHL); read-out: AZD5991 24h GI50
Method: as §1

SKMEL24 = assay: Cell viability assay; format: cell-based; conditions: Homo sapiens, SK-MEL-24, 24 h; SKMEL24 (Skin); read-out: AZD5991 24h GI50
Method: as §1

For Cc1c2c(nn1C)CSCc1cc(n(C)n1)CSc1cc(c3ccccc3c1)OCCCc1c(C(=O)O)n(C)c3c-2c(Cl)ccc13 (atropisomer, axis not shown; (Ra)) [(Ra)-7], the apoptosis-inducing activity [1] was “blocked”, the GI50 (HEL92.1.7) was 1640 nM and the EC50 (Nomo1 [2]; read-out: 6h caspase EC50, NOMO1, single agent) was 32.5 nM. The EC50 (Nomo1 [2]; read-out: AZD5991 6h EC50, Nomo1 (AML), caspase 3/7 activation) was 47 nM, the GI50 (HMCB) was 3000 nM and the EC50 (OCIAML5; read-out: 6h caspase EC50, OCIAML5, single agent) was greater than 333 nM. It also gave an EC50 (OCIAML5; read-out: AZD5991 6h EC50, OCIAML5 (AML), caspase 3/7 activation) greater than 30000 nM, a GI50 (JVM2) of 547 nM and a GI50 (Karpas422) of 490 nM. The GI50 (H2122) was 18700 nM, the EC50 (OCIM1; read-out: 6h caspase EC50, OCIM1, single agent) was greater than 333 nM and the EC50 (OCIM1; read-out: AZD5991 6h EC50, OCIM1 (AML), caspase 3/7 activation) was greater than 30000 nM. The GI50 (MCF7) was 1350 nM, the EC50 (MV411; MV4-11, 6 h, read-out: 6h caspase EC50, MV411, single agent) was 56.3 nM and the EC50 (MV411; MV4-11, 6 h, read-out: AZD5991 6h EC50, MV411 (AML), caspase 3/7 activation) was 25 nM. For the same compound, the EC50 (MV411; MV4-11, caspase activation, Mcl-1-dependent cell line, read-out: MV4-11, EC50) was 24 nM, the EC50 (MV411; MV4-11, mean of log transformed data, read-out: MV4-11 caspase pEC50 (converted)) was 24 nM and the GI50 (Nomo1 [3]) was 21 nM. The GI50 (KMS11) was 540 nM, the GI50 (H1975) was 17600 nM and the GI50 (RI1) was 28200 nM. It also gave a GI50 (NCI-H929) of 53 nM, a GI50 (LK2) greater than 30000 nM and an EC50 (ME1; read-out: 6h caspase EC50, ME1, single agent) greater than 333 nM. It also gave an EC50 (ME1; read-out: AZD5991 6h EC50, ME1 (AML), caspase 3/7 activation) of 326 nM, an EC50 (CMK; read-out: 6h caspase EC50, CMK, single agent) greater than 333 nM and an EC50 (CMK; read-out: AZD5991 6h EC50, CMK (AML), caspase 3/7 activation) greater than 30000 nM. It also gave a GI50 (LUDLU1) of 991 nM, a GI50 (JEKO1) of 452 nM and a GI50 (L363) of 75 nM. The GI50 (SKBR3) was 118 nM, the GI50 (MALME3M) was 19500 nM and the GI50 (MAVER1) was 530 nM. For the same compound, the GI50 (H2110) was 140 nM, the “caspase-3/7 activation and cell death” value [4] was “confers resistance” and the GI50 (Bjab) was 16 nM. It also gave a GI50 (SKMEL24) of 17900 nM.

Source: PMC6297231 (Nature Communications, 2018)
